Experimental data as given in patent publication US20160367497A1, “METHODS AND COMPOSITIONS FOR TREATING NEUROPATHIES” (Washington University, priority 2007, published 2016).

Assays:
[1] = tested on: DRG neuronal explant cultures; assay: in vitro Wallerian degeneration assay, DRG explant neurite transection; assay type: cell-based, mouse; conditions: lentivirus-mediated expression in DRG neurons
Protocol: To identify the mechanism of delayed axonal degeneration mediated by the Wlds protein, we employed an in-vitro Wallerian degeneration model. Primary DRG explant neurons were infected with lentivirus expressing the appropriate proteins, and axons were injured by either removal of the neuronal cell body (transection) or growth in vincristine (toxic).
Mouse DRG explants from E12.5 embryos were cultured in the presence of 1 nM nerve growth factor. Non-neuronal cells were removed from the cultures by adding 5-fluorouracil to the culture medium. Transection of neurites was performed at 10-20 DIV using an 18-gauge needle to remove the neuronal cell bodies. Incubation with β-nicotinamide adenine dinucleotide (Sigma) or Sirtinol (Calbiochem) was performed using conditions indicated in the text or figures.
Quantitative analysis of axonal degeneration was performed as previously described (Zhai, et al., Neuron 39:217-25, 2003). Briefly, the cultures were examined using phase contrast microscopy at the indicated times. Axons with a fragmented, non-refractile appearance were designated as “degenerated.” At each time point, at least 200 singly distinguishable axons were blindly scored from several randomly taken images of each culture. Each condition was tested in triplicate explants in each experiment. Results were obtained from 2-4 independent experiments for each condition. Statistical analysis was performed by Student's T test. For calculations of neurite-covered area, digitally captured images from quadruplicate samples of two independent experiments were analyzed using analysis 3.1 software (Soft Imaging System, Lakewood, Colo.).
Cell culture, in vitro axotomy, and quantification of axonal degeneration. Mouse DRG explants from E12.5 embryos were cultured in the DMEM containing 10% FCS and 1 nM nerve growth factor. Non-neuronal cells were removed from the cultures by adding 5-fluorouracil to the culture media. Transection of neurites was performed at 14-21 DIV using an 18-gauge needle to remove the neuronal cell bodies. Lentiviral expression vectors were generated. Lentiviral infection was performed 3-7 days prior to axonal transection for 24 hr. Quantitative analysis of neurite degeneration was performed.

[2] = NMNAT enzymatic assay (NAD production); assay type: biochemical; conditions: protein from HEK293/HEK293T cells; NAD generated in 1 h
Protocol: […]
NMNAT protein overexpression, affinity purification and enzymatic assay. […] Relative NMNAT enzymatic activity was measured by using affinity purified proteins as described before and subtracted the value obtained from mock transfected cells and normalized by the amount of recombinant protein determined by densitometry.

NMNAT3: murine nicotinamide mononucleotide adenylyltransferase3
axonal/neurite degeneration after transection [1]: same extent of delay in neurite degeneration as well as NMNAT1
NMNAT enzymatic activity (NAD synthesis) [2]: comparable enzymatic activity compared with NMNAT1
